{
  "source": "patent US7893091B2",
  "about": "“Combination therapy for the treatment of urinary frequency, urinary urgency and urinary incontinence” (Merck Sharp & Dohme Corp., priority 2005, dated 2011)",
  "origin": "cited, not measured here",
  "key": {"[1]": {"system": "rats"}, "[2]": {"system": "C-fibers", "conditions": "instilled directly into the bladder"}, "[3]": {"system": "rats", "remark": "listed apart in the source"}, "[4]": {"system": "C-fibers", "conditions": "more potent than capsaicin"}, "[5]": {"system": "decerebrate cats"}, "[6]": {"system": "guinea pig"}, "[7]": {"system": "isolated bladder strips", "conditions": "tissue bath"}},
  "data": [
    {"smiles": "C[C@H](Cc1ccc2c(c1)OC(C(=O)[O-])(C(=O)[O-])O2)NC[C@H](O)c1cccc(Cl)c1.[Na+].[Na+]", "note": "[CL316243]", "values": [
      {"measurement": "voiding interval in the hyperreflexia paradigms", "setting": "[1]; administered intravenously", "value": "dose-dependently normalizes voiding interval"},
      {"measurement": "spontaneous bladder contractions in the detrusor instability paradigm", "setting": "[1]; administered orally", "value": "dose-dependent inhibition"},
      {"measurement": "bladder pressure", "setting": "[1]; intravenous administration", "value": "reduces bladder pressure"},
      {"measurement": "bladder capacity in cystomeric studies", "setting": "[1]; intravenous administration, prolongation of micturition interval without increasing residual urine volume", "value": "increases bladder capacity"}
    ]},
    {"smiles": "COc1cc(CNC(=O)CCCC/C=C/C(C)C)ccc1O", "note": "[Capsaicin]", "values": [
      {"measurement": "beneficial effects (i.e. increased bladder capacity), share of patients", "setting": "[2]", "value": "~70 % of patients"}
    ]},
    {"smiles": "COc1ccccc1CC(=N)N1C[C@@H]2C(=O)CCC(c3ccccc3)(c3ccccc3)[C@@H]2C1", "note": "[RP 67580]", "values": [
      {"measurement": "volume threshold in cyclophosphamide-induced model of bladder overactivity", "setting": "[3]; rats, i.t. versus i.v. administration", "value": "increased the volume threshold after i.t., but not i.v. administration"}
    ]},
    {"smiles": "C=C(C)[C@]12C[C@@H](C)[C@@]34O[C@](Cc5ccccc5)(O[C@@H]1[C@@H]3C=C(COC(=O)Cc1ccc(O)c(OC)c1)C[C@]1(O)C(=O)C(C)=C[C@@H]41)O2", "note": "[Resinferatoxin]", "values": [
      {"measurement": "potency relative to capsaicin", "setting": "[4]", "value": "~100", "unit": "fold"}
    ]},
    {"smiles": "CC(=O)NC1(c2ccccc2)CCN(CC[C@H](CN(C)C(=O)c2ccccc2)c2ccc(Cl)c(Cl)c2)CC1", "note": "[SR 48968]", "values": [
      {"measurement": "response in cyclophosphamide-induced model of bladder overactivity", "setting": "[3]; 10 nmol/rat", "value": "moderate response"}
    ]},
    {"smiles": "Cc1ccc(-c2c3n(c(=O)c4ncccc24)CC[C@@H](C)CN(Cc2cc(C(F)(F)F)cc(C(F)(F)F)c2)C3=O)cc1", "note": "[TAK-637]", "values": [
      {"measurement": "micturition reflex induced by electrical stimulation of the rostral brainstem near the locus coeruleus", "setting": "[5]; 3 mg/kg i.v.", "value": "did not inhibit"},
      {"measurement": "voiding efficiency", "setting": "[5]; decerebrate cats, 0.1, 0.3, 1 and 3 mg/kg i.v.", "value": "without any significant reduction"},
      {"measurement": "increase in bladder capacity (maximal increase)", "setting": "[5]; decerebrate cats, 0.1, 0.3, 1 and 3 mg/kg i.v., dose-dependent", "value": 94, "unit": "%"},
      {"measurement": "micturition reflex induced by topical application of capsaicin onto the surface of the bladder dome", "setting": "[6]", "value": "inhibited"},
      {"measurement": "distension-induced rhythmic bladder contractions", "setting": "[6]; systemic administration", "value": "decreased the number but not the amplitude"},
      {"measurement": "carbachol or electrical field stimulation induced contractions of isolated bladder strips", "setting": "[7]", "value": "had no effect"}
    ]}
  ]
}
